Experimental data taken from EP4643860A1, “USE OF ECTOIN OR DERIVATIVE THEREOF IN PREVENTING AND/OR AMELIORATING CELL DAMAGE CAUSED BY IRRITANT, AND METHOD” (Bloomage Biotechnology Corporation Limited, priority 2022, dated 2024).

Columns and labels:
[1] = Cell activity (MTT) after treatment with acetaldehyde alone; format: cell-based; conditions: human, ca9-22 cells, 1 day, T/NT
Excerpt: The absorbance of each well at 550nm was detected by a microplate reader. […] NT was taken as 100%, and the ratio of T/NT of the sample well was taken as the cell activity, the results of which are shown in Table 3. On the basis of meeting the requirements of significant difference, the greater the cell activity %, the better the effect of inhibiting cell damage caused by acetaldehyde. Table 3 Cell activity results

[2] = system: CA9-22 cells; assay: Cell activity (MTT) of acetaldehyde-treated cells with ectoine; format: cell-based
Description: Experimental sample solution: ectoine powder and 17.7 M acetaldehyde were diluted with DMEM culture medium respectively, and then the two were mixed in different ratios to prepare experimental sample solutions with different final concentrations.
The absorbance of each well at 550nm was detected by a microplate reader. […] NT was taken as 100%, and the ratio of T/NT of the sample well was taken as the cell activity. The larger the cell activity %, the better the effect of inhibiting cell damage caused by acetaldehyde. Table 4 Cell activity results

[3] = system: CA9-22 cells; assay: Inflammatory factor IL-6 induced by Pg.LPS (ELISA); format: cell-based; conditions: vs Pg.LPS alone (FIG. 3)
Description: Experimental materials: Porphyromonas gingivalis lipopolysaccharide (Pg.LPS) (purchased from Sigma), ectoine (from Bloomage Biotechnology Corporation Limited), and DMEM culture medium.
Experimental sample solution: ectoine and Porphyromonas gingivalis lipopolysaccharide were diluted with DMEM culture medium to prepare an experimental sample solution containing a final concentration of 0.001 wt% ectoine + 1 µg/ml Pg.LPS.
CA9-22 cells were cultured in a 24-well plate. After complete attachment, the above experimental sample was added. After 24 hours, the cell culture supernatant was collected. The absorbance at […] and 570 nm was detected by enzyme-linked immunosorbent assay (ELISA), and the concentration of inflammatory factor IL-6 was calculated based on the absorbance.
(§1) According to the method in Example 2.1, an experimental sample solution containing a final concentration of 0.01wt% ectoine + 1µg/ml Pg.LPS was prepared, and the concentration of the inflammatory factor IL-6 was calculated. Other experimental processes not mentioned were the same as those in Example 2.1.
as §1, with “0.05wt% ectoine+1µg/ml” for “0.01wt% ectoine + 1µg/ml”
Statistical analysis: t-test statistical analysis was used to compare each group with group treated with Pg.LPS alone. * indicates p<0.05, which is considered to be of statistical difference. ** indicates p<0.01, which is considered to be of significant statistical difference, and *** indicates p<0.001, which is considered to be of extremely significant statistical difference.
Experimental materials: Porphyromonas gingivalis lipopolysaccharide (Pg.LPS) (purchased from Sigma), ACHA (from Bloomage Biotechnology Corporation Limited), and DMEM culture medium. […]

[4] = in vitro; conditions: human, ca9-22 cells, Cell activity
Description: (§2) Experimental sample solutions: ectoine powder was dissolved in DMEM culture medium to prepare experimental sample solutions with different final concentrations, and the concentrations were shown in Table 2.
(§3) Methods: CA9-22 cells purchased from ATCC were co-cultured with different experimental sample solutions for 1 day, then the experimental sample solution was removed and MTT was added. After 3 hours, the supernatant was carefully sucked out and dimethyl sulfoxide (DMSO) was added. The absorbance of each well at 550 nm was detected by a microplate reader. The untreated well was used as the control, the absorbance of the sample well was defined as T, and the absorbance of the untreated well was defined as NT. NT was taken as 100%, and the ratio of T/NT of the sample wells was taken as the cell activity. Table 2 Cell activity results

[5] = system: CA9-22 cells; assay: in vitro
Description: as §2, §3

[6] = system: HGF-1 cells; assay: ROS generation under CSE induction (DCFH-DA fluorescence); format: cell-based; conditions: 24 h pre-incubation, 5% CSE 3 h, vs control group (FIG. 1)
Description: Ectoin (purchased from Bloomage Biotechnology) was weighed and dissolved in HGF-1 cell (gingival fibroblast) complete culture medium (containing 10% FBS, 1% penicillin-streptomycin), to prepare 100 µg/mL and 500 µg/mL ectoine solutions, respectively.
(§4) Preparation of Cigarette Smoke Extract (CSE): The gas collection bottle was sterilized and the HGF-1 cell culture medium was filled into the gas collection bottle. A certain brand of cigarette was fixed on the long tube end of the gas collection bottle, and the short tube end was connected to a vacuum pump. The vacuum pump was turned on and the cigarette was lighted, so that the cigarette smoke entered the culture medium from the long tube end. In this way, cigarette smoke extract was prepared.
Test method: Preparation of a DCFH-DA solution with a final concentration of 10 µM using phenol red-free culture medium.
HGF-1 cells were seeded into a 96-well plate at a density of 30,000 cells/well and cultured at 37°C under 5% CO2 for later use. After 24 hours for cell attachment, a blank group, a control group, and an experimental group containing 100µg/mL and […] ectoine, respectively, were set up, with 100µL/well. […] The fluorescence intensity was measured at an excitation wavelength of 485nm and an emission wavelength of 538nm. […]

[7] = system: HGF-1 cells; assay: TNF-α generation under CSE induction (ELISA); format: cell-based; conditions: 24 h pre-incubation, 5% CSE 24 h, vs control group (FIG. 2)
Description: Ectoine (purchased from Bloomage Biotechnology) was weighed separately and dissolved in HGF-1 cell complete culture medium (containing 10% FBS, 1% penicillin-streptomycin), to prepare 100 µg/mL and 500 µg/mL ectoine solutions, respectively.
as §4
Test method: HGF-1 cells were seeded into a 96-well plate at a density of 30,000 cells/well and cultured at 37°C under 5% CO2 for later use. […] The secretion of TNF-α was detected using an ELISA detection kit. At the same time as the ELISA detection, cell lysate was added to the 96-well plate and centrifugation was performed, and the supernatant was taken for BCA protein quantification. After homogenization, the control group was used as a benchmark, and the relative content of TNF-α was expressed as a percentage. […]

Compound | viability at 24 h, 100 µM ([1]; Acetaldehyde 0.0001M) [%] | viability at 24 h, 1000 µM ([1]; Acetaldehyde 0.001M) [%] | viability at 24 h, 5000 µM ([1]; Acetaldehyde 0.005M) [%] | viability at 24 h, 10000 µM ([1]; Acetaldehyde 0.01M) [%] | viability at 24 h, 20000 µM ([1]; Acetaldehyde 0.02M) [%] | viability at 20000 µM ([2]; Homo sapiens, Ca9-22, 24 h, read-out: Cell activity) [%] | concentration of IL-6 caused by Pg.LPS ([3]; 0.001wt% ectoine + 1 µg/ml Pg.LPS, 24 h (Example 2.1)) | concentration of IL-6 caused by Pg.LPS ([3]; 0.01wt% ectoine + 1µg/ml Pg.LPS, 24 h (Example 2.2)) | concentration of IL-6 caused by Pg.LPS ([3]; 0.05wt% ectoine + 1µg/ml Pg.LPS, 24 h (Example 2.3)) | viability at 24 h [4] [%] | cytotoxicity [5] | ROS content after CSE oxidative irritation ([6]; 100µg/mL ectoine) | ROS content after CSE oxidative irritation ([6]; 200µg/mL ectoine) | cell activity of CA9-22 after the addition of ectoine ([2]; Acetaldehyde 0.02 M + ectoine 0.02-0.1 wt%, vs acetaldehyde-treated group) | TNF-α content after CSE irritation ([7]; 100µg/mL ectoine) | TNF-α content after CSE irritation ([7]; 500µg/mL ectoine)
CC=O [Acetaldehyde, acetaldehyde] | 96 | 93 | 93 | 89 | 70 | 70 | – | – | – | – | – | – | – | – | – | –
CC1=NC(C(=O)O)CCN1 (stereo not shown) [ectoine, 2-methyl-1,4,5,6-tetrahydropyrimidin-4-carboxylic acid] | – | – | – | – | – | – | can significantly reduce the concentration of IL-6 | can significantly reduce the concentration of IL-6 | can significantly reduce the concentration of IL-6 | 112 | no cytotoxicity | can inhibit the increase of ROS content | can inhibit the increase of ROS content | increased | can inhibit the increase of TNF-α content | can inhibit the increase of TNF-α content
